Starred links: 1 amine or outer side, 2 acyl side, 3 side chain; linkers in the order of their positions; H or OH if unused. Positions of bridges follow the written chain, without caps; N, C: chain ends. Non-standard residues stand in square brackets, D forms with d. Residues, ends and D or L forms follow the SMILES beside them. *: point of attachment. Bip(4'-NHCO-C6H4-3-CH2COOH) = N[C@@H](Cc1ccc(-c2ccc(NC(=O)c3cccc(CC(=O)O)c3)cc2)cc1)C(=O)O; Bip(4'-NH) = O=C([C@H](Cc1ccc(-c2ccc(N[*:3])cc2)cc1)N[*:1])[*:2]; Indazole3carbonyl(1-CH2COOH) = O=C(O)Cn1nc(C(=O)*)c2ccccc21; Bip(4'-COOH) = N[C@@H](Cc1ccc(-c2ccc(C(=O)O)cc2)cc1)C(=O)O; Bip(4'-NHAc) = CC(=O)Nc1ccc(-c2ccc(C[C@H](N)C(=O)O)cc2)cc1; Ala(imidazol-2-yl) = N[C@@H](Cc1ncc[nH]1)C(=O)O; dArg(ω-Bn) = N=C(NCCC[C@@H](N)C(=O)O)NCc1ccccc1; Ala(morpholin-4-yl) = N[C@@H](CN1CCOCC1)C(=O)O; Phe(3-CONH2) = NC(=O)c1cccc(C[C@H](N)C(=O)O)c1; Bip = N[C@@H](Cc1ccc(-c2ccccc2)cc1)C(=O)O; X16 = Cc1noc(-c2ccc(C(=O)*)cc2)n1; 2Pal = N[C@@H](Cc1ccccn1)C(=O)O; Tic = O=C(O)[C@@H]1Cc2ccccc2CN1; 2Thi = N[C@@H](Cc1cccs1)C(=O)O; Cha = N[C@@H](CC1CCCCC1)C(=O)O; Chg = N[C@H](C(=O)O)C1CCCCC1; Tle = CC(C)(C)[C@H](N)C(=O)O; Aze = O=C(O)[C@@H]1CCN1; Sar = CNCC(=O)O

Chain of TNFα (P01375 77-233 limits assumed): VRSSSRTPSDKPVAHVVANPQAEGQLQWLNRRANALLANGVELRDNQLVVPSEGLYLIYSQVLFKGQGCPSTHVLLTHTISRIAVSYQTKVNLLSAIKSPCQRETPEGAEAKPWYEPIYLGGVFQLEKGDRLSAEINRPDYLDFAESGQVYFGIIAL

The first assay addresses TNFα (Homo sapiens, UniProt P01375). In words: TNF-Induced HEK-Blue Assay. In kind it is cell-based.
Details: not given
Regarding `CC(C)C[C@@H]1NC(=O)[C@H](Cc2ccc(O)cc2)NC(=O)[C@H](C(C)C)NC(=O)[C@@H]2CCCN2C(=O)[C@H](C(C)C)NC(=O)[C@@H](CCCNC(=N)NCc2ccccc2)NC(=O)[C@H](CC(=O)O)NC(=O)[C@@H]2CCCN2C(=O)CN(C)C(=O)[C@H](Cc2ccc(-c3ccc(NC(=O)c4nn(CC(=O)O)c5ccccc45)cc3)cc2)NC(=O)[C@H](Cc2ccc(-c3ccc(C(=O)O)cc3)cc2)NC(=O)[C@H](CC2CCCCC2)NC(=O)CSC[C@@H](C(=O)NCC(N)=O)NC1=O` [Example 579] ({CH2CO}-[Cha][Bip(4'-COOH)][Bip(4'-NH)](Indazole3carbonyl(1-CH2COOH))[Sar]PD[dArg(ω-Bn)]VPVYLCG-NH2; thioether N-13), the IC50 (commonly the midpoint of a concentration-inhibition curve) was less than 50 nM.

`CC[C@H](C)[C@@H]1NC(=O)[C@@H]2CCCN2C(=O)[C@H]([C@@H](C)CC)NC(=O)[C@@H](CCCNC(=N)N)NC(=O)[C@H](CC(=O)O)NC(=O)[C@H](Cc2ccccc2)NC(=O)CN(C)C(=O)[C@H](Cc2ccc(-c3ccc(NC(=O)c4nn(CC(=O)O)c5ccccc45)cc3)cc2)NC(=O)[C@H](Cc2ccc(-c3ccc(C(=O)O)cc3)cc2)NC(=O)[C@H](C(C)(C)C)NC(=O)CSC[C@@H](C(=O)NCC(N)=O)NC(=O)[C@H](CC(C)C)NC(=O)[C@H](Cc2cnc[nH]2)NC1=O` [Example 359] ({CH2CO}-[Tle][Bip(4'-COOH)][Bip(4'-NH)](Indazole3carbonyl(1-CH2COOH))[Sar]FD[dR]IPIHLCG-NH2; thioether N-13) gave an IC50 of less than 50 nM.

Staying with this assay, now noted: HEK-Blue-CD40L cells, NF-kB-driven secreted alkaline phosphatase reporter; TNFα 0.5 ng/ml; 18 h; read-out: TNF induced HEK-Blue assay IC50 value.
On to `CC(=O)Nc1ccc(-c2ccc(C[C@@H]3NC(=O)[C@H](Cc4ccc(-c5ccccc5)cc4)NC(=O)[C@H](CN4CCOCC4)NC(=O)CSC[C@@H](C(=O)NCC(N)=O)NC(=O)[C@H](CC(C)C)NC(=O)[C@H](Cc4cnc[nH]4)NC(=O)[C@H](C(C)C)NC(=O)[C@@H]4CCN4C(=O)[C@H](C(C)C)NC(=O)[C@@H](CCCNC(=N)N)NC(=O)[C@H](CC(=O)O)NC(=O)[C@H](Cc4ccc(O)cc4)NC(=O)CN(C)C3=O)cc2)cc1` [Example 273] ({CH2CO}-[Ala(morpholin-4-yl)][Bip][Bip(4'-NHAc)][Sar]YD[dR]V[Aze]VHLCG-NH2; thioether N-13), for which the IC50 was less than 50 nM.

Turning to `CC(C)C[C@@H]1NC(=O)[C@H](Cc2cccs2)NC(=O)[C@H](C(C)C)NC(=O)[C@@H]2CCCN2C(=O)[C@H](C(C)C)NC(=O)[C@@H](CCCNC(=N)N)NC(=O)[C@H](CC(=O)O)NC(=O)[C@H](Cc2ccccn2)NC(=O)CN(C)C(=O)[C@H](Cc2ccc(-c3ccc(NC(=O)c4cccc(CC(=O)O)c4)cc3)cc2)NC(=O)[C@H](Cc2ccc(-c3ccccc3)cc2)NC(=O)[C@H](CN2CCOCC2)NC(=O)CSC[C@@H](C(=O)NCC(N)=O)NC1=O` [Example 608] ({CH2CO}-[Ala(morpholin-4-yl)][Bip][Bip(4'-NHCO-C6H4-3-CH2COOH)][Sar][2Pal]D[dR]VPV[2Thi]LCG-NH2; thioether N-13), the IC50 is less than 50 nM.

As to `CC(C)C[C@@H]1NC(=O)[C@H](CCCNC(=N)N)NC(=O)[C@H](CC(C)C)NC(=O)[C@@H]2CCCN2C(=O)[C@H](C(C)C)NC(=O)[C@H](CCCNC(=N)N)NC(=O)[C@H](CC(=O)O)NC(=O)[C@@H]2CCCN2C(=O)CN(C)C(=O)[C@H](Cc2ccc(-c3ccccc3)cc2)NC(=O)[C@H](Cc2ccc(-c3ccccc3)cc2)NC(=O)[C@H](Cc2ccccc2)NC(=O)CSC[C@@H](C(=O)NCC(N)=O)NC1=O` [Example 21] ({CH2CO}-F[Bip][Bip][Sar]PDRVPLRLCG-NH2; thioether N-13), the IC50 was 200 to 2000 nM.

Consider `CC[C@H](C)[C@@H]1NC(=O)[C@@H](CCCNC(=N)N)NC(=O)[C@H](CC(=O)O)NC(=O)[C@H](Cc2cnc[nH]2)NC(=O)CN(C)C(=O)[C@H](Cc2ccc(-c3ccc(NC(=O)c4ccc(-c5nc(C)no5)cc4)cc3)cc2)NC(=O)[C@H](Cc2ccc(-c3ccc(C(=O)O)cc3)cc2)NC(=O)[C@H](CC2CCCCC2)NC(=O)CSC[C@@H](C(=O)NCC(N)=O)NC(=O)[C@H](CC(C)C)NC(=O)[C@H](Cc2ncc[nH]2)NC(=O)[C@H](C(C)C)NC(=O)[C@@H]2Cc3ccccc3CN2C1=O` [Example 412] ({CH2CO}-[Cha][Bip(4'-COOH)][Bip(4'-NH)](X16)[Sar]HD[dR]I[Tic]V[Ala(imidazol-2-yl)]LCG-NH2; thioether N-13), for which the IC50 was 50 to 200 nM.

For `CC(=O)Nc1ccc(-c2ccc(C[C@@H]3NC(=O)[C@H](Cc4ccc(-c5ccccc5)cc4)NC(=O)[C@H](CN4CCOCC4)NC(=O)CSC[C@@H](C(=O)NCC(N)=O)NC(=O)[C@H](CC(C)C)NC(=O)[C@H](Cc4cccc(C(N)=O)c4)NC(=O)[C@H](C4CCCCC4)NC(=O)[C@@H]4CCCN4C(=O)[C@H](C(C)C)NC(=O)[C@@H](CCCNC(=N)N)NC(=O)[C@H](CC(=O)O)NC(=O)[C@H](Cc4ccccc4)NC(=O)CN(C)C3=O)cc2)cc1` [Example 459] ({CH2CO}-[Ala(morpholin-4-yl)][Bip][Bip(4'-NHAc)][Sar]FD[dR]VP[Chg][Phe(3-CONH2)]LCG-NH2; thioether N-13), the IC50 lay in the range of 50 to 200 nM.

For the origin of these results see US20250145665A1, “MACROCYCLIC PEPTIDES USEFUL AS MODULATORS OF TNF ALPHA” (Bristol-Myers Squibb Company, priority 2023, published 2025).
